Measured values: patent US8673368B2, “Cannabinoid-containing plant extracts as neuroprotective agents” (GW Pharma Limited, priority 2006, dated 2014)

Assays:
[1] = system: hippocampal neurones; test: Effect of five-minute application of 1 μM test article on intracellular calcium levels (calcium imaging, Fura-2-AM); type: cell-based, Lister-Hooded rat; settings: for Concentration of intracellular Ca2+ Post-treatment: after five-minute application of 1 μM test article; for Fura-2 350/380 nm ratio, pre-treatment: baseline before five-minute application of 1 μM test article; for %ΔF/F / Concentration of intracellular Ca2+ Response (Post-Pre): five-minute application of 1 μM test article
Protocol: (§1) Standard primary hippocampal cultures were prepared from Lister-Hooded rat pups (1-3 days old), euthanised by cervical dislocation, in accordance with Home Office and institute regulations. The brain was quickly removed, hippocampi dissected out and placed in ice-cold filtered HEPES buffered solution (HBS, composition in mM: NaCl 130; KCl 5.4; CaCl2 1.8; MgCl2 1.0; HEPES 10; glucose 25). Micro-dissection was performed to remove blood vessels and excess, non-hippocampal, tissue.
(§2) The hippocampal tissue was thinly chopped and placed in 1 mg/ml type X and XIV protease solution (40 minutes). The tissue was then washed in HBS and triturated several times using graded fire-polished glass Pasteur pipettes. Following centrifugation, the supernatant was removed and the remaining tissue pellet re-suspended in tissue culture medium (90% Minimum Essential Medium with 10% foetal bovine serum and 2 mM L-glutamine). The tissue was stored at standard conditions: in a humidified incubator at 37° C. and in 5% CO2, and re-centrifuged.
(§3) Excess medium was removed and the tissue pellet re-suspended in culture medium for plating. A drop of cell suspension was placed on the centre of a 35 mm culture dish, coated with poly-L-lysine and incubated at 37° C. for 1 hour. Following this, a further 2 ml of tissue culture medium was gently added to each dish and the culture kept in a humidified incubator (37° C.; 5% CO2).
(§4) Cultures were allowed to mature for 2 days before replacement of MEM with Neurobasal Medium, supplemented with 2% B27, 2 mM L-glutamine, and 25 μM L-glutamate. Culture dishes were used for imaging at 5-10 days in vitro.
(§5) For calcium imaging experiments, hippocampal cultures were washed with HBS at room temperature and loaded with the cell-permeable fluorescent calcium indicator Fura-2-AM (10 μM) for 1 hour in the dark.
(§6) The sodium channel blocker tetrodotoxin (TTX) was added to all perfusion media, to avoid spontaneous cell firing and transmitter release, ensuring only post-synaptic effects were visualised.
(§7) Cultures were perfused with HBS or low Mg^2+HEPES buffered solution for experiments involving NMDA (composition in mM: NaCl 130; KCl 5.4; CaCl2 1.8; MgCl2 0.1; HEPES 10; glucose 25), at a rate of 1-2 ml/min, using a gravity perfusion system.
(§8) A suitable field of cells was identified under the microscope and a greyscale transmission image visualised and captured using Oracal software. A Xenon lamp, which gave a single wavelength of light, was used to expose the cells to 350 nm and 380 nm, specified by the monochromator.
(§9) The ratio of these wavelengths, which is directly proportional to intracellular calcium levels in the cells, was plotted after background fluorescence subtraction.
(§10) The data that were produced were pooled and means for each experiment determined.
In order to test the regulation of calcium homeostasis in the presence of the test article, the effects were measured in response to a five-minute application of 1 μM sample.
(§11) Fluorescent units were converted into %ΔF/F. F is defined as an average of five baseline values before drug application. The value for %ΔF/F is therefore the percentage change in the […] by the average baseline value before drug application.
All experiments were performed a minimum of three times, each on neurones from a different culture. Only changes in fluorescence >0.1 ratio units were considered as a response. Data were exported to Excel and statistical analysis performed using Prism. Normality tests confirmed absence of normal distribution of data. Therefore, a Mann Whitney U test was utilised for paired comparisons and for multiple group comparisons a Kruskal-Wallis test with either a Dunn's or Mann Whitney post-test used.
The effects of the essentially pure cannabinoids, the cannabinoid-containing plant extracts and the cannabinoid-ratioed comparators were assessed to investigate the responses of the neurones to these different forms of cannabinoid.

[2] = system: hippocampal neurones; test: Acute modulation of NMDA (10 μM) calcium response by five-minute application of 1 μM test article; type: cell-based, Lister-Hooded rat; settings: for Pre-treatment %ΔF/F / Pre-treatment [Ca2+]: initial two-minute NMDA (10 μM) application, before test article; for Response (% change): reduction of NMDA (10 μM) calcium response by 1 μM test article, positive = reduction; for Post-treatment %ΔF/F / Post-treatment [Ca2+]: second two-minute NMDA (10 μM) application after five minutes of 1 μM test article
Protocol: as §1, §2, §3, §4, §5, §6, §7, §8, §9, §10
(§12) A stock of NMDA (10 mM) was made up in double-distilled water and the necessary concentrations made up in HBS. NMDA (with 100 μM glycine) was applied in every experiment to categorically distinguish between neuronal and glial cells in the image obtained.
The acute modulatory effect of calcium homeostasis was assessed by comparing an initial two-minute application of NMDA (10 μM) with a subsequent two-minute application of NMDA (10 μM). The subsequent application of the NMDA followed a five minute application of 1 μM sample.
as §11
(§13) All experiments were performed a minimum of three times, each on neurones from a different culture. Only changes in fluorescence >0.1 ratio units were considered as a response. Data were exported to Excel and statistical analysis performed using Prism. Normality tests confirmed absence of normal distribution of data. […]

[3] = system: hippocampal neurones; test: Intracellular calcium ion concentration after overnight incubation with 1 μM test article; type: cell-based, Lister-Hooded rat; settings: for Concentration of intracellular Ca2+ Response (Post-Pre): overnight incubation with 1 μM test article at 37° C., 5% CO2; for Change from control (%): overnight incubation with 1 μM test article, control = naïve culture dishes, minus = reduction
Protocol: as §1, §2, §3, §4, §5, §6, §7, §8, §9, §10
(§14) To assess the effects of the test articles under more realistic chronic treatment regimes, cells were incubated overnight with 1 μM sample and responses to increasing doses of NMDA assessed (1, 10 & 100 μM).
as §11
All experiments were performed a minimum of three times, each on neurones from a different culture. Only changes in fluorescence >0.1 ratio units were considered as a response. […]

[4] = system: hippocampal neurones; test: Response to increasing doses of NMDA after overnight incubation with 1 μM test article; type: cell-based, Lister-Hooded rat
Protocol: as §1, §2, §3, §4, §5, §6, §7, §8, §9, §10, §12, §14, §11, §13

[5] = system: hippocampal neurones; test: Acute effect on NMDA calcium ion response following overnight incubation with test article; type: cell-based, Lister-Hooded rat; settings: for Response (% change): overnight incubation plus acute 1 μM test article, NMDA 10 μM, positive = reduction, minus = increase; for Post-treatment %ΔF/F / Post-treatment [Ca2+] / Pre-treatment %ΔF/F / Pre-treatment [Ca2+]: overnight incubation with 1 μM test article; for Post-treatment %ΔF/F / Post-treatment [Ca2+]: NMDA 10 μM after 5 minute application of 1 μM same test article; for Pre-treatment %ΔF/F / Pre-treatment [Ca2+]: NMDA 10 μM for 2 minutes, before acute application
Protocol: as §1, §2, §3, §4, §5, §6, §7, §8, §9, §10, §12
In order to assess whether the acute modulatory effects are altered by overnight incubation, the cells were incubated overnight with the 1 μM sample and assessed by comparing an initial two-minute application of NMDA (10 μM) with a subsequent two-minute application of NMDA (10 μM). The subsequent application of the NMDA followed a five minute application of 1 μM test article.
as §11
All experiments were performed a minimum of three times, each on neurones from a different culture. Only changes in fluorescence >0.1 ratio units were considered as a response. Data were exported to Excel and statistical analysis performed using Prism. […]

[6] = system: neuronal cultures exposed to glutamate; settings: in vitro, isolated or synthetic cannabinoid; cited from earlier work
[7] = system: NMDA receptor; settings: cited from earlier work
[8] = isolated or synthetic CBD; cited from earlier work

SMILES | Concentration of intracellular Ca2+ Post-treatment [1] | Fura-2 350/380 nm ratio, pre-treatment [1] | %ΔF/F [1] [%] | Concentration of intracellular Ca2+ Response (Post-Pre) [1] | Pre-treatment %ΔF/F [2] [%] | Pre-treatment [Ca2+] [2] | Response (% change) [2] [%] | Post-treatment %ΔF/F [2] [%] | Post-treatment [Ca2+] [2] | Concentration of intracellular Ca2+ Response (Post-Pre) [3] | Change from control (%) [3] [%] | %ΔF/F ([4]; 1 μM NMDA) [%] | Concentration of intracellular Ca2+ Post-treatment ([4]; 1 μM NMDA) | Concentration of intracellular Ca2+ Pre-treatment ([4]; 1 μM NMDA) | Concentration of intracellular Ca2+ Response (Post-Pre) ([4]; 1 μM NMDA) | %ΔF/F ([4]; 10 μM NMDA) [%] | Concentration of intracellular Ca2+ Post-treatment ([4]; 10 μM NMDA) | Concentration of intracellular Ca2+ Pre-treatment ([4]; 10 μM NMDA) | Concentration of intracellular Ca2+ Response (Post-Pre) ([4]; 10 μM NMDA) | %ΔF/F ([4]; 100 μM NMDA) [%] | also measured
CCCCCc1cc(O)c2c(c1)OC(C)(C)[C@@H]1CCC(C)=C[C@@H]21 [P-THC, tetrahydrocannabinol] | 0.588 | 0.363 | 56.38 | 0.225 | 93.69 | 0.741 | 19.6 | 63.81 | 0.596 | 0.826 | 6.2 | 62.24 | 0.522 | 0.839 | −0.317 | 57.50 | 0.498 | 0.866 | −0.368 | 200.35 | Response (% change) ([2]; listed as essentially pure THC): lowest amount of reduction; Change from control (%) ([3]; listed as essentially pure THC): increase; Concentration of intracellular Ca2+ Response (Post-Pre) ([4]; 1 μM NMDA, listed as essentially pure THC): did not reduce the concentration of calcium ions as much as the others; Concentration of intracellular Ca2+ Post-treatment ([4]; 100 μM NMDA): 1.897; Concentration of intracellular Ca2+ Pre-treatment ([4]; 100 μM NMDA): 0.947; Concentration of intracellular Ca2+ Response (Post-Pre) ([4]; 100 μM NMDA): 0.950; Response (% change) [5]: −28.5%; Post-treatment %ΔF/F [5]: 38.93%; Post-treatment [Ca2+] [5]: 0.487; Pre-treatment %ΔF/F [5]: 46.53%; Pre-treatment [Ca2+] [5]: 0.379; Prevention of glutamate toxicity [6]: prevented to some extent
O=C(O)[C@@H]1C[C@H](CP(=O)(O)O)CCN1 (racemic) [Selfotel] | – | – | – | – | – | – | – | – | – | – | – | – | – | – | – | – | – | – | – | – | Mortality rate versus placebo ([7]; stroke patients): trends towards a higher mortality rate
C=C(C)[C@@H]1CCC(C)=C[C@H]1c1c(O)cc(CCCCC)cc1O [P-CBD, cannabidiol] | 1.172 | 0.805 | 45.45 | 0.367 | 91.70 | 0.722 | 58.2 | 32.91 | 0.302 | 0.893 | 13.2 | 43.80 | 0.410 | 0.933 | −0.523 | 53.54 | 0.489 | 0.913 | −0.424 | 141.57 | Response (% change) ([2]; listed as essentially pure CBD): far greater reduction; Concentration of intracellular Ca2+ Post-treatment ([4]; 100 μM NMDA): 1.289; Concentration of intracellular Ca2+ Pre-treatment ([4]; 100 μM NMDA): 0.910; Concentration of intracellular Ca2+ Response (Post-Pre) ([4]; 100 μM NMDA): 0.379; Response (% change) [5]: −68.6%; Response (% change) ([5]; listed as essentially pure CBD): increased the concentration to a large extent; Post-treatment %ΔF/F [5]: 71.97%; Post-treatment [Ca2+] [5]: 0.715; Pre-treatment %ΔF/F [5]: 52.42%; Pre-treatment [Ca2+] [5]: 0.424; Prevention of glutamate toxicity [6]: prevented to some extent; Difference between treated and placebo treated animals [8]: failed to find a difference
CN1CC[C@@]23CCCC[C@@H]2[C@@H]1Cc1ccc(O)cc13 [Dextrorphan] | – | – | – | – | – | – | – | – | – | – | – | – | – | – | – | – | – | – | – | – | Side effects ([7]; human subjects): hallucinations, agitation and hypotension
